Measured values taken from BindingDB's records for patent WO2022076495 (MERCK SHARP & DOHME CORP., 2022).

Biological target: T1, Diacylglycerol O-acyltransferase 2 (Homo sapiens, UniProt Q96PD7)
T1 sequence (Q96PD7 whole entry): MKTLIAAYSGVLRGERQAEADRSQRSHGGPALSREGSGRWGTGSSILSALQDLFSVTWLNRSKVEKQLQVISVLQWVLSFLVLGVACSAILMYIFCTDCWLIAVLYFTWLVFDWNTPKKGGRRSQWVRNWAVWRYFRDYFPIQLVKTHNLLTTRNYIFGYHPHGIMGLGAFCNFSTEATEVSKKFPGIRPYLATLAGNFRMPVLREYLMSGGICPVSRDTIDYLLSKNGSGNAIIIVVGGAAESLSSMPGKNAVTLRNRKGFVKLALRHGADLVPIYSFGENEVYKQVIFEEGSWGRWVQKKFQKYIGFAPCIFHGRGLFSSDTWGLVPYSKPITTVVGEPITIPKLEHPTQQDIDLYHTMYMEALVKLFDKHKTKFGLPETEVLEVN
Test: DGAT2 enzymatic activity assay
Description: DGAT2 activity was determined by measuring the amount of enzymatic product 13Ci8-triolein (13C-l,2,3-Tri(cis-9-octadecenoyl)glycerol) using the membrane prep mentioned above. The assay was carried out in ABgene 384-well assay plates in a final volume of 25 pL at rt. The assay mixture contained the following: assay buffer (100 mM Tris Cl, pH 7.0, 20 mM MgCl2, 5% ethanol), 25 pM of di olein, 5 μM of 13C oleoyl-CoA and 8 ng/pL of DGAT2 membrane.

IC50: 194 nM
SMILES: CCn1c(=O)n(-c2cccc(OC(F)F)c2)c2cc(F)c(C(=O)NC3(C)CS(=O)(=O)C3)cc21 [WO2022076495, EXAMPLE 40]
